Where two headings read alike, the source gives them in different places.
Columns and labels:
Escherichia coli = assay: Germicidal suspension assay, E. coli; type: cell-based; conditions: for % survival at 1 min: 37° C.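 As to all read-outs here: surviving cells were scored as colonies on nutrient agar after 24 h at 37° C, survival given as percent of untreated controls.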
Method: E. coli cells from an overnight Trypticase soy nutrient agar (TSA) were resuspended to a density measured as an absorbance of 1.0 at 600 nm in sterile ddH2 O. The reaction of the cells with each of the bactericidal test formulations analyzed was started by addition of 30 μl of cells to 970 μl of test formulation. The reaction mixture was incubated at 37° C for at least 1 minute and then centrifuged in a microfuge for 1 minute. The cell pellet was washed by resuspension in 1 ml of neutralization buffer. (The neutralization buffer: 50 mM Tris-HCl, pH 7.0, 5 mM MgSO4, 20 mM CaCl2, 0.1 M NaCl and 0.1% gelatin was prepared by first making Tris buffer and adjusting the pH. The salts and gelatin were then added and the solution stirred with heat until the solution was clear. The solution was then autoclaved for 20 min. The neutralization buffer was used without dilution.) The cells were centrifuged in a microfuge for 1 minute and resuspended in 1 ml of neutralization buffer. The viable count was determined by spreading 100 μl of bacterial suspension and serial dilutions thereof in neutralization buffer on nutrient agar and scoring surviving colonies after 24 h at 37° C. Percent survival relative to untreated controls was calculated from the scored values.

[1] = 0.1% w/v acetate pH 3.5, nisin 100 μg/ml and/or EDTA 1.0 mM where present, initial 2 × 10^7 cfu/ml
[2] = 0.3% w/v acetate pH 3.5, nisin 100 μg/ml and/or EDTA 1.0 mM where present, initial 2 × 10^7 cfu/ml
[3] = 1.0% w/v acetate pH 3.5, nisin 100 μg/ml and/or EDTA 1.0 mM where present, initial 2 × 10^7 cfu/ml
[4] = 3.0% w/v acetate pH 3.5, nisin 100 μg/ml and/or EDTA 1.0 mM where present, initial 2 × 10^7 cfu/ml
[5] = 0.1% w/v lactate pH 3.5, nisin 100 μg/ml and/or EDTA 1.0 mM where present, initial 5 × 10^7 cfu/ml
[6] = 0.1% w/v succinate pH 3.5, nisin 100 μg/ml and/or EDTA 1.0 mM where present, initial 3.4 × 10^6 cfu/ml
[7] = 0.3% w/v lactate pH 3.5, nisin 100 μg/ml and/or EDTA 1.0 mM where present, initial 5 × 10^7 cfu/ml
[8] = 0.3% w/v succinate pH 3.5, nisin 100 μg/ml and/or EDTA 1.0 mM where present, initial 3.4 × 10^6 cfu/ml
[9] = 1.0% w/v lactate pH 3.5, nisin 100 μg/ml and/or EDTA 1.0 mM where present, initial 5 × 10^7 cfu/ml
[10] = 1.0% w/v succinate pH 3.5, nisin 100 μg/ml and/or EDTA 1.0 mM where present, initial 3.4 × 10^6 cfu/ml
[11] = 3.0% w/v lactate pH 3.5, nisin 100 μg/ml and/or EDTA 1.0 mM where present, initial 5 × 10^7 cfu/ml
[12] = 3.0% w/v succinate pH 3.5, nisin 100 μg/ml and/or EDTA 1.0 mM where present, initial 3.4 × 10^6 cfu/ml

Structure (SMILES): CC(=O)O [Acetate]
- % survival at 1 min (Escherichia coli; [1]): 55%
- % survival at 1 min (Escherichia coli; [2]): 80%
- % survival at 1 min (Escherichia coli; [3]): 90%
- % survival at 1 min (Escherichia coli; [4]): 10.1%

Structure (SMILES): O=C(O)CC(O)(CC(=O)O)C(=O)O [Citrate]
- % survival at 5 min (Helicobacter pylori; strain ATCC43504, 0.1% citrate adjusted to pH 2.5, nisin 100 μg/ml where present, 37° C.): 0.14%
- % survival at 5 min (Helicobacter pylori; strain ATCC43504, 0.1% citrate adjusted to pH 3.0, nisin 100 μg/ml where present, 37° C.): < 0.004%
- % survival at 5 min (Helicobacter pylori; strain ATCC43504, 0.1% citrate adjusted to pH 3.5, nisin 100 μg/ml where present, 37° C.): < 0.004%
- % survival at 5 min (Helicobacter pylori; strain ATCC43504, 0.1% citrate adjusted to pH 4.0, nisin 100 μg/ml where present, 37° C.): 0.36%
- % survival at 5 min (Helicobacter pylori; strain ATCC43504, 0.1% citrate adjusted to pH 5.0, nisin 100 μg/ml where present, 37° C.): 68.5%
- % survival at 5 min (Helicobacter pylori; strain ATCC43504, 0.3% citrate adjusted to pH 2.5, nisin 100 μg/ml where present, 37° C.): 0.027%
- % survival at 5 min (Helicobacter pylori; strain ATCC43504, 0.3% citrate adjusted to pH 3.0, nisin 100 μg/ml where present, 37° C.): < 0.027%
- % survival at 5 min (Helicobacter pylori; strain ATCC43504, 0.3% citrate adjusted to pH 3.5, nisin 100 μg/ml where present, 37° C.): 29.7%
- % survival at 5 min (Helicobacter pylori; strain ATCC43504, 0.3% citrate adjusted to pH 4.0, nisin 100 μg/ml where present, 37° C.): 17.6%
- % survival at 5 min (Helicobacter pylori; strain ATCC43504, 0.3% citrate adjusted to pH 5.0, nisin 100 μg/ml where present, 37° C.): 100%
- % survival at 5 min (Helicobacter pylori; strain ATCC43504, pH 5.0, citrate 0.1% w/v, nisin 100 μg/ml where present, first of two experiments (initial 1.40 × 10^5 cfu/ml)): 83.6%
- % survival at 5 min (Helicobacter pylori; strain ATCC43504, pH 5.0, citrate 0.1% w/v, nisin 100 μg/ml where present, second of two experiments (initial 3.26 × 10^5 cfu/ml)): 25.8%
- % survival at 5 min (Helicobacter pylori; strain ATCC43504, pH 5.0, citrate 0.3% w/v, nisin 100 μg/ml where present, first of two experiments (initial 1.40 × 10^5 cfu/ml)): 42.9%
- % survival at 5 min (Helicobacter pylori; strain ATCC43504, pH 5.0, citrate 0.3% w/v, nisin 100 μg/ml where present, second of two experiments (initial 3.26 × 10^5 cfu/ml)): 4.39%
- % survival at 5 min (Helicobacter pylori; strain ATCC43504, pH 5.0, citrate 1.0% w/v, nisin 100 μg/ml where present, first of two experiments (initial 1.40 × 10^5 cfu/ml)): 22.1%
- % survival at 5 min (Helicobacter pylori; strain ATCC43504, pH 5.0, citrate 1.0% w/v, nisin 100 μg/ml where present, second of two experiments (initial 3.26 × 10^5 cfu/ml)): 50.9%
- % survival at 5 min (Helicobacter pylori; strain ATCC43504, pH 7.0, citrate 0.1% w/v, nisin 100 μg/ml where present, initial 9.62 × 10^4 cfu/ml): 17.7%
- % survival at 5 min (Helicobacter pylori; strain ATCC43504, pH 7.0, citrate 0.3% w/v, nisin 100 μg/ml where present, initial 9.62 × 10^4 cfu/ml): 8.94%
- % survival at 5 min (Helicobacter pylori; strain ATCC43504, pH 7.0, citrate 1.0% w/v, nisin 100 μg/ml where present, initial 9.62 × 10^4 cfu/ml): 0.82%
- % survival at 5 min (Helicobacter pylori; strain ATCC43579, 0.1% citrate adjusted to pH 2.5, nisin 100 μg/ml where present, 37° C.): < 5.0 × 10^-4%
- % survival at 5 min (Helicobacter pylori; strain ATCC43579, 0.1% citrate adjusted to pH 3.0, nisin 100 μg/ml where present, 37° C.): 1.1 × 10^-3%
- % survival at 5 min (Helicobacter pylori; strain ATCC43579, 0.1% citrate adjusted to pH 3.5, nisin 100 μg/ml where present, 37° C.): 0.18%
- % survival at 5 min (Helicobacter pylori; strain ATCC43579, 0.1% citrate adjusted to pH 4.0, nisin 100 μg/ml where present, 37° C.): 9.56%
- % survival at 5 min (Helicobacter pylori; strain ATCC43579, 0.1% citrate adjusted to pH 5.0, nisin 100 μg/ml where present, 37° C.): 97.2%
- % survival at 5 min (Helicobacter pylori; strain ATCC43579, pH 5.0, 0.1% citrate, nisin 0, 37° C., initial 3.19 × 10^7 cfu/ml): 86.2%
- % survival at 5 min (Helicobacter pylori; strain ATCC43579, pH 5.0, citrate 0.1% w/v, nisin 100 μg/ml where present, initial 1.04 × 10^4 cfu/ml): 100%
- % survival at 5 min (Helicobacter pylori; strain ATCC43579, pH 5.0, citrate 0.3% w/v, nisin 100 μg/ml where present, initial 1.04 × 10^4 cfu/ml): 100%
- % survival at 5 min (Helicobacter pylori; strain ATCC43579, pH 5.0, citrate 1.0% w/v, nisin 100 μg/ml where present, initial 1.04 × 10^4 cfu/ml): 100%
- % survival at 5 min (Helicobacter pylori; strain ATCC43579, pH 7.0, citrate 0.1% w/v, nisin 100 μg/ml where present): 12.1%
- % survival at 5 min (Helicobacter pylori; strain ATCC43579, pH 7.0, citrate 0.3% w/v, nisin 100 μg/ml where present): 0.26%
- % survival at 5 min (Helicobacter pylori; strain ATCC43579, pH 7.0, citrate 1.0% w/v, nisin 100 μg/ml where present): 0.02%
- % survival at 1 min (Escherichia coli; 0.1% w/v citrate pH 3.5, nisin 100 μg/ml and/or EDTA 1.0 mM where present, initial 5 × 10^7 cfu/ml): 100%
- % survival at 1 min (Escherichia coli; 0.3% w/v citrate pH 3.5, nisin 100 μg/ml and/or EDTA 1.0 mM where present, initial 5 × 10^7 cfu/ml): 56.3%
- % survival at 1 min (Escherichia coli; 1.0% w/v citrate pH 3.5, nisin 100 μg/ml and/or EDTA 1.0 mM where present, initial 5 × 10^7 cfu/ml): 72.9%
- % survival at 1 min (Escherichia coli; 3.0% w/v citrate pH 3.5, nisin 100 μg/ml and/or EDTA 1.0 mM where present, initial 5 × 10^7 cfu/ml): 100%
- survival of E. coli on exposure to the agent by itself (Escherichia coli): unaffected

Structure (SMILES): O=C(O)CN(CCN(CC(=O)O)CC(=O)O)CC(=O)O [EDTA]
- % survival at 5 min (Helicobacter pylori; strain ATCC43504, EDTA 1.0 mM, nisin 100 μg/ml where present, pH 2.5, first of two experiments (initial 8.6 × 10^4 cfu/ml)): 0.023%
- % survival at 5 min (Helicobacter pylori; strain ATCC43504, EDTA 1.0 mM, nisin 100 μg/ml where present, pH 2.5, second of two experiments (initial 9.82 × 10^5 cfu/ml)): 0.013%
- % survival at 5 min (Helicobacter pylori; strain ATCC43504, EDTA 1.0 mM, nisin 100 μg/ml where present, pH 3.0, first of two experiments (initial 8.6 × 10^4 cfu/ml)): < 0.021%
- % survival at 5 min (Helicobacter pylori; strain ATCC43504, EDTA 1.0 mM, nisin 100 μg/ml where present, pH 3.0, second of two experiments (initial 9.82 × 10^5 cfu/ml)): < 0.001%
- % survival at 5 min (Helicobacter pylori; strain ATCC43504, EDTA 1.0 mM, nisin 100 μg/ml where present, pH 3.5, first of two experiments (initial 8.6 × 10^4 cfu/ml)): 94.2%
- % survival at 5 min (Helicobacter pylori; strain ATCC43504, EDTA 1.0 mM, nisin 100 μg/ml where present, pH 3.5, second of two experiments (initial 9.82 × 10^5 cfu/ml)): 0.015%
- % survival at 5 min (Helicobacter pylori; strain ATCC43504, EDTA 1.0 mM, nisin 100 μg/ml where present, pH 4.0, first of two experiments (initial 8.6 × 10^4 cfu/ml)): 11.6%
- % survival at 5 min (Helicobacter pylori; strain ATCC43504, EDTA 1.0 mM, nisin 100 μg/ml where present, pH 4.0, second of two experiments (initial 9.82 × 10^5 cfu/ml)): 16.5%
- % survival at 5 min (Helicobacter pylori; strain ATCC43504, EDTA 1.0 mM, nisin 100 μg/ml where present, pH 5.0, first of two experiments (initial 8.6 × 10^4 cfu/ml)): 10.0%
- % survival at 5 min (Helicobacter pylori; strain ATCC43504, EDTA 1.0 mM, nisin 100 μg/ml where present, pH 5.0, second of two experiments (initial 9.82 × 10^5 cfu/ml)): 100%
- % survival at 5 min (Helicobacter pylori; strain ATCC43526, pH 7.0, EDTA 1.0 mM, nisin 100 μg/ml where present, initial 3.40 × 10^4 cfu/ml): 94.1%
- % survival at 5 min (Helicobacter pylori; strain ATCC43526, pH 7.0, EDTA 10 mM, nisin 100 μg/ml where present, initial 3.40 × 10^4 cfu/ml): 21.0%
- % survival at 5 min (Helicobacter pylori; strain ATCC43526, pH 7.0, EDTA 100 mM, nisin 100 μg/ml where present, initial 3.40 × 10^4 cfu/ml): 1.62%
- % survival at 5 min (Helicobacter pylori; strain ATCC43579, pH 5.0, EDTA 1.0 mM, nisin 100 μg/ml where present, initial 2.04 × 10^5 cfu/ml): 13.63%
- % survival at 5 min (Helicobacter pylori; strain ATCC43579, pH 5.0, EDTA 10 mM, nisin 100 μg/ml where present, initial 2.04 × 10^5 cfu/ml): 8.82%
- % survival at 5 min (Helicobacter pylori; strain ATCC43579, pH 5.0, EDTA 100 mM, nisin 100 μg/ml where present, initial 2.04 × 10^5 cfu/ml): 0.43%
- % survival at 1 min (Escherichia coli; [1]): 40%
- % survival at 1 min (Escherichia coli; [5]): 5.1%
- % survival at 1 min (Escherichia coli; [6]): 56.8%
- % survival at 1 min (Escherichia coli; [2]): 25%
- % survival at 1 min (Escherichia coli; [7]): 0.46%
- % survival at 1 min (Escherichia coli; [8]): 63.6%
- % survival at 1 min (Escherichia coli; [3]): 25%
- % survival at 1 min (Escherichia coli; [9]): 0.91%
- % survival at 1 min (Escherichia coli; [10]): 46.2%
- % survival at 1 min (Escherichia coli; [4]): 10.7%
- % survival at 1 min (Escherichia coli; [11]): 1.58%
- % survival at 1 min (Escherichia coli; [12]): 43.2%
- survival of E. coli on exposure to the agent by itself (Escherichia coli): unaffected
- % survival at 1 min (Escherichia coli; pH 2.0, 20 mM Na acetate buffer, nisin 100 μg/ml and/or EDTA 1.0 mM, initial 4 × 10^7 cfu/ml): 0.07%
- % survival at 1 min (Escherichia coli; pH 3.0, 20 mM Na acetate buffer, nisin 100 μg/ml and/or EDTA 1.0 mM, initial 4 × 10^7 cfu/ml): 5.41%

Structure (SMILES): CC(O)C(=O)O (stereo not shown) [Lactate, lactate]
- % survival at 1 min (Escherichia coli; [5]): 22.2%
- % survival at 1 min (Escherichia coli; [7]): 46.7%
- % survival at 1 min (Escherichia coli; [9]): 35.6%
- % survival at 1 min (Escherichia coli; [11]): 4.2%

Structure (SMILES): O=C(O)CCC(=O)O [Succinate, succinate]
- % survival at 1 min (Escherichia coli; [6]): 85.5%
- % survival at 1 min (Escherichia coli; [8]): 29.9%
- % survival at 1 min (Escherichia coli; [10]): 36.7%
- % survival at 1 min (Escherichia coli; [12]): 13.9%
